From patent US20250276983A1, “COMPOUNDS AND METHODS FOR MODULATING HER2” (IAMBIC THERAPEUTICS, INC., priority 2022, published 2025)

Tests used:
BaF3_EGFRWT cells = test: Cell growth inhibition assay, BaF3_EGFRWT; format: cell-based; details: 72 h, 80 ng/mL recombinant human EGF, 3 days treatment, CellTiterGlo 2.0, read-out: EGFR WT IC50 (nM), cell growth inhibition
BaF3_HER2WT cells = test: Cell growth inhibition assay, BaF3_HER2WT; format: cell-based; details: 72 h, 3 days treatment, CellTiterGlo 2.0, read-out: HER2 WT IC50 (nM), cell growth inhibition
wtEGFR = wtEGFR (Homo sapiens (Human), UniProt P00533); test: HotSpot radiometric kinase activity assay, wtEGFR; format: biochemical; details: 4 nM wtEGFR, 10 μM 33P-ATP, 20 min preincubation, 2 hours, read-out: EGFR WT IC50
wtEGFR, sequence (P00533 25-1210): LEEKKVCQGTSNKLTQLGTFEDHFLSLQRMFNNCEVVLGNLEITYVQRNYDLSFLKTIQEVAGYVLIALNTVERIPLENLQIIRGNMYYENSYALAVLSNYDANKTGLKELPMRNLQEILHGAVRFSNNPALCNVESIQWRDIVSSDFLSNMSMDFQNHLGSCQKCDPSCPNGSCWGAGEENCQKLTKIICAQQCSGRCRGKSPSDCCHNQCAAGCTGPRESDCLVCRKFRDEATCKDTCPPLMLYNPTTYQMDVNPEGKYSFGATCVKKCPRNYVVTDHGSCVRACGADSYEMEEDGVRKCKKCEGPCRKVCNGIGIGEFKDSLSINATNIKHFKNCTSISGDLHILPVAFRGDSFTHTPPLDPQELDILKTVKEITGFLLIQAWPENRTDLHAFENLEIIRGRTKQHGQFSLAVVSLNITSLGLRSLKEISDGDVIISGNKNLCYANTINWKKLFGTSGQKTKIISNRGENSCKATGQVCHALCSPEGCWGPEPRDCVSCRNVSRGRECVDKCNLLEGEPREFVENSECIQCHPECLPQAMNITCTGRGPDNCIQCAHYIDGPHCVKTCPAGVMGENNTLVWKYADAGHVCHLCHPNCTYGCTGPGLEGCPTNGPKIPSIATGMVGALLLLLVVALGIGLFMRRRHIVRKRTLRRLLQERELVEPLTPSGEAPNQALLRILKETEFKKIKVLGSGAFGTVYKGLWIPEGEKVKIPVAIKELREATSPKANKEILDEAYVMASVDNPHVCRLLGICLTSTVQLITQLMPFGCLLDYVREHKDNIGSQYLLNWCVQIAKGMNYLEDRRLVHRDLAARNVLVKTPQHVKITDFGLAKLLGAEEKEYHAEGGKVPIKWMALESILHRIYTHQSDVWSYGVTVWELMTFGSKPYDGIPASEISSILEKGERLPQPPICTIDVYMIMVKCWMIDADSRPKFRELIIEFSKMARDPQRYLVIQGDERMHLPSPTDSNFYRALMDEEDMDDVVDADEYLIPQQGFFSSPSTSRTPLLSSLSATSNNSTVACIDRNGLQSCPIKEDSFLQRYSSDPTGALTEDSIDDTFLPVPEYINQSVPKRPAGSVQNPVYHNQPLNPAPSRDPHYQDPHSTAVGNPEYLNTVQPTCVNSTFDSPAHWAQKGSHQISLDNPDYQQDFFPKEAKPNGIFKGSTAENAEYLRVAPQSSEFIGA
Procedure: (§1) The purpose of the wtERBB2, ERBB2-A775_G776insYVMA (ERBB2YVMA), wtEGFR biochemical assay was to evaluate the inhibition (% inhibition and IC50 values) of the small molecule inhibitors by using the “HotSpot” radiometric kinase activity assay. HotSpot assays monitor the […] of kinase substrate by the radioactive gamma phosphate of adenosine triphosphate (33P-ATP) during biochemical reactions. HotSpot assays was performed in steps upon completion of the kinase reaction: deposition of a reaction mixture aliquot onto P81 ion exchange paper, extensive washing of the aforementioned P81 paper using phosphoric acid to remove unbound radiolabeled 33P-ATP from the P81 paper, and finally visualization and quantification of the dried P81 paper utilizing a phosphoimager. […] Typical reaction solutions (10 μL final reaction volume) contained the following buffer conditions: 20 mM Hepes (pH 7.5), 10 mM MgCl2, 1 mM EGTA, 0.01% Brij35, 0.02 mg/mL BSA, 0.1 mM Na3VO4, 2 mM DTT, 1% DMSO. The assay was primed by preparing a fresh 0.2 mg/mL solution of pEY (Sigma Cat: P7244) substrate in the reaction buffer and supplementing that solution with […] of MnCl2 as substrate cofactor (Sigma Cat: M9522). The kinase of interest was then added to the solution at the appropriate concentration (30 nM wtERBB2 from, or 20 nM ERBB2YVMA, or 4 nM wtEGFR) and gently mixed prior to delivery of compound in 100% DMSO by acoustic dispensing (Beckman Echo550). Compound, Kinase, and substrate were allowed to incubate for 20 min at room temperature prior to the initiation of the reaction by addition of 33P-ATP (PerkinElmer Cat: NEG602, final conc 10 μM). […] IC50 determinations were made from a plot of kinase activity as a function of inhibitor concentration fit to the 4-parameter IC50 equation with the enzyme concentration held constant using GraphPad Prism (San Diego).

wtERBB2 = wtERBB2 (Homo sapiens (Human), UniProt P04626); test: HotSpot radiometric kinase activity assay, wtERBB2; format: biochemical; details: 30 nM wtERBB2, 10 μM 33P-ATP, 20 min preincubation, 2 hours, read-out: HER2 WT IC50
wtERBB2, sequence (P04626 23-1255): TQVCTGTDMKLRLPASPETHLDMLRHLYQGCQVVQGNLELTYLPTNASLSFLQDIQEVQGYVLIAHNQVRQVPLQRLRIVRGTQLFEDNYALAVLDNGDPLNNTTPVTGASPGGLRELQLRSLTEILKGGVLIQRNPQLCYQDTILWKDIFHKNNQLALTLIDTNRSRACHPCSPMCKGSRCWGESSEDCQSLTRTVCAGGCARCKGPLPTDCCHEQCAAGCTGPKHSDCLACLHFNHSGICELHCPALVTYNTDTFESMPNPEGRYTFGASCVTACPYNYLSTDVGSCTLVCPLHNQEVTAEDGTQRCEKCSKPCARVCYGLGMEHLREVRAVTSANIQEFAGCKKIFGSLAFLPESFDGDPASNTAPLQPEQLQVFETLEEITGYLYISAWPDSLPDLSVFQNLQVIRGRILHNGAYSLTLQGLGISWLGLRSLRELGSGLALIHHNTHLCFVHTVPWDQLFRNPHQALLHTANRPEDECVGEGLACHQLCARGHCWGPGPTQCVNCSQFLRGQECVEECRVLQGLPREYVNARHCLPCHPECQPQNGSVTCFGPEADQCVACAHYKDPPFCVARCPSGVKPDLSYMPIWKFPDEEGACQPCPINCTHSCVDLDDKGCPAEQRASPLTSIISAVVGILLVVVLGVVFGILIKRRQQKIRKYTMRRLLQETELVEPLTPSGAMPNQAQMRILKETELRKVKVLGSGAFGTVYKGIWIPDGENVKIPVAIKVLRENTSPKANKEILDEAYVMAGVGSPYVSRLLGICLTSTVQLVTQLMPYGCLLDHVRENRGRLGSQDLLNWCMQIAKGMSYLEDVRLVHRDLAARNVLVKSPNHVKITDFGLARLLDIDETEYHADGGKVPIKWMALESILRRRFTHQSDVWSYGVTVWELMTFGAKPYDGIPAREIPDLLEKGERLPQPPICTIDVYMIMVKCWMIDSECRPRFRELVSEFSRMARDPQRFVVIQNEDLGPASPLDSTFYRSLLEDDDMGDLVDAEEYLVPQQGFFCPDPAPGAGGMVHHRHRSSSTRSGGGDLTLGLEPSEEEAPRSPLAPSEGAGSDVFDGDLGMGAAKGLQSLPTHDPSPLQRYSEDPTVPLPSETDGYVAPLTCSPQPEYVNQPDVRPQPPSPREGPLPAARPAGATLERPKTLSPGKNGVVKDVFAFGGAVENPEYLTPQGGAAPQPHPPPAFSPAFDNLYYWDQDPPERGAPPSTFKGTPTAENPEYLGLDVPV
Procedure: as §1

BaF3_HER2YVMA cells = test: Cell growth inhibition assay, BaF3_HER2YVMA; format: cell-based; details: 72 h, BaF3_HER2YVMA cells, 3 days treatment, CellTiterGlo 2.0; read-out: HER2-YVMA IC50 (nM), cell growth inhibition

C=CC(=O)N1CCCC(c2ccn3ncnc(Nc4ccc(Oc5ccn6ncnc6c5)c(C)c4)c23)C1 (stereo not shown) [Example 12, 1-(3-(4-((4-([1,2,4]triazolo[1,5-a]pyridin-7-yloxy)-3-methylphenyl)amino)pyrrolo[2,1-f][1,2,4]triazin-5-yl)piperidin-1-yl)prop-2-en-1-one]
IC50 (BaF3_EGFRWT cells): 1500 to 5000 nM | IC50 (BaF3_HER2WT cells): < 200 nM | IC50 (wtEGFR): < 200 nM | IC50 (wtERBB2): < 200 nM | IC50 (BaF3_HER2YVMA cells): < 200 nM

Cc1cc(Nc2ncnn3ccc(-c4cnn(CCNC(=O)/C=C/CN(C)C)c4)c23)ccc1Oc1ccn2ncnc2c1 [Example 103, (E)-N-(2-(4-(4-((4-([1,2,4]triazolo[1,5-a]pyridin-7-yloxy)-3-methylphenyl)amino)pyrrolo[2,1-f][1,2,4]triazin-5-yl)-1H-pyrazol-1-yl)ethyl)-4-(dimethylamino)but-2-enamide]
IC50 (BaF3_EGFRWT cells): 1500 to 5000 nM | IC50 (BaF3_HER2WT cells): 1500 to 5000 nM | IC50 (wtERBB2): < 200 nM | IC50 (BaF3_HER2YVMA cells): 1500 to 5000 nM

C=CC(=O)N1CCC2(C1)CN(c1ccn3ncnc(Nc4ccc(Oc5ccn6ncnc6c5)c(C)c4)c13)C2 [Example 155, 1-(2-{4-[(3-methyl-4-{[1,2,4]triazolo[1,5-a]pyridin-7-yloxy}phenyl)amino]pyrrolo[2,1-f][1,2,4]triazin-5-yl}-2,6-diazaspiro[3.4]octan-6-yl)prop-2-en-1-one]
IC50 (BaF3_EGFRWT cells): 1500 to 5000 nM | IC50 (BaF3_HER2WT cells): < 200 nM | IC50 (wtERBB2): < 200 nM | IC50 (BaF3_HER2YVMA cells): 200 to 500 nM

C=CC(=O)NC1CCN(C(=O)c2ccn3ncnc(Nc4ccc(Oc5ccn6ncnc6c5)c(C)c4)c23)CC1 [Example 5, N-(1-(4-((4-([1,2,4]triazolo[1,5-a]pyridin-7-yloxy)-3-methylphenyl)amino)pyrrolo[2,1-f][1,2,4]triazine-5-carbonyl)piperidin-4-yl)acrylamide]
IC50 (BaF3_EGFRWT cells): 1500 to 5000 nM | IC50 (BaF3_HER2WT cells): < 200 nM | IC50 (wtERBB2): < 200 nM | IC50 (BaF3_HER2YVMA cells): 200 to 500 nM

C=CC(=O)N1CCC[C@@H](c2ccn3ncnc(Nc4ccc(Oc5ccn6ncnc6c5)c(C)c4)c23)CC1 (single isomer, unassigned) [Example 111]
IC50 (wtEGFR): < 200 nM | IC50 (wtERBB2): < 200 nM

C=CC(=O)NC1CN(c2ccn3ncnc(Nc4ccc(Oc5ccn6ncnc6c5)c(C)c4)c23)C1 [Example 14, N-(1-(4-((4-([1,2,4]triazolo[1,5-a]pyridin-7-yloxy)-3-methylphenyl)amino)pyrrolo[2,1-f][1,2,4]triazin-5-yl)azetidin-3-yl)acrylamide]
IC50 (BaF3_EGFRWT cells): 1500 to 5000 nM | IC50 (BaF3_HER2WT cells): < 200 nM | IC50 (wtERBB2): < 200 nM | IC50 (BaF3_HER2YVMA cells): < 200 nM

Cc1cc(Nc2ncnn3ccc(C4CCCN(C(=O)/C=C/CN(C)C)C4)c23)ccc1Oc1ccn2ncnc2c1 (stereo not shown) [Example 96, (E)-1-(3-(4-((4-([1,2,4]triazolo[1,5-a]pyridin-7-yloxy)-3-methylphenyl)amino)-pyrrolo-[2,1-f][1,2,4]-triazin-5-yl)piperidin-1-yl)-4-(dimethylamino)but-2-en-1-one]
IC50 (BaF3_EGFRWT cells): 1500 to 5000 nM | IC50 (BaF3_HER2WT cells): < 200 nM | IC50 (wtERBB2): < 200 nM | IC50 (BaF3_HER2YVMA cells): 500 to 1500 nM

Cc1cc(Nc2ncnn3ccc(N4CCN(C(=O)/C=C/CN(C)C)CC4)c23)ccc1Oc1ccn2ncnc2c1 [Example 22, (E)-1-(4-(4-((4-([1,2,4]triazolo[1,5-a]pyridin-7-yloxy)-3-methylphenyl)amino)pyrrolo[2,1-f][1,2,4]triazin-5-yl)piperazin-1-yl)-4-(dimethylamino)but-2-en-1-one]
IC50 (BaF3_EGFRWT cells): 1500 to 5000 nM | IC50 (BaF3_HER2WT cells): < 200 nM | IC50 (wtERBB2): < 200 nM | IC50 (BaF3_HER2YVMA cells): < 200 nM

C=C(F)C(=O)N1CC(n2cc(-c3ccn4ncnc(Nc5ccc(Oc6ccn7ncnc7c6)c(C)c5)c34)cn2)C1 [Example 19, 1-(3-(4-(4-((4-([1,2,4]triazolo[1,5-a]pyridin-7-yloxy)-3-methylphenyl)amino)pyrrolo[2,1-f][1,2,4]triazin-5-yl)-1H-pyrazol-1-yl)azetidin-1-yl)-2-fluoroprop-2-en-1-one]
IC50 (BaF3_EGFRWT cells): 1500 to 5000 nM | IC50 (BaF3_HER2WT cells): 200 to 500 nM | IC50 (wtERBB2): < 200 nM | IC50 (BaF3_HER2YVMA cells): 500 to 1500 nM

C=CC(=O)N1CCC[C@H](c2ccn3ncnc(Nc4ccc(Oc5ccn6ncnc6c5)c(C)c4)c23)CC1 [Example 112, (S)-1-(4-(4-((4-([1,2,4]triazolo[1,5-a]pyridin-7-yloxy)-3-methylphenyl)amino)pyrrolo[2,1-f][1,2,4]triazin-5-yl)azepan-1-yl)prop-2-en-1-one]
IC50 (wtEGFR): < 200 nM | IC50 (wtERBB2): < 200 nM

Cc1cc(Nc2ncnn3ccc(C4CN(C(=O)/C=C/CN5CC(F)(F)C5)C4)c23)ccc1Oc1ccn2ncnc2c1 [Example 91, (E)-1-(3-(4-((4-([1,2,4]triazolo[1,5-a]pyridin-7-yloxy)-3-methylphenyl)amino)pyrrolo[2,1-f][1,2,4]-triazin-5-yl)azetidin-1-yl)-4-(3,3-difluoroazetidin-1-yl)but-2-en-1-one]
IC50 (BaF3_EGFRWT cells): 1500 to 5000 nM | IC50 (BaF3_HER2WT cells): < 200 nM | IC50 (wtERBB2): < 200 nM | IC50 (BaF3_HER2YVMA cells): 500 to 1500 nM

Cc1cc(Nc2ncnn3ccc([C@@H]4CCCN(C(=O)/C=C/CN(C)C)CC4)c23)ccc1Oc1ccn2ncnc2c1 (single isomer, unassigned) [Example 109]
IC50 (wtEGFR): < 200 nM | IC50 (wtERBB2): < 200 nM

Cc1cc(Nc2ncnn3ccc(C(=O)NCCCN(C)C)c23)ccc1Oc1ccn2ncnc2c1 [Example 178, 4-((4-([1,2,4]triazolo[1,5-a]pyridin-7-yloxy)-3-methylphenyl)amino)-N-(3-(dimethylamino)-propyl)pyrrolo[2,1-f][1,2,4]triazine-5-carboxamide]
IC50 (BaF3_EGFRWT cells): > 5000 nM | IC50 (BaF3_HER2WT cells): 200 to 500 nM | IC50 (wtERBB2): < 200 nM | IC50 (BaF3_HER2YVMA cells): 1500 to 5000 nM

Cc1cc(Nc2ncnn3ccc([C@@H]4CCN(C(=O)/C=C/CN(C)C)C4)c23)ccc1Oc1ccn2ncnc2c1 (single isomer, unassigned) [Example 99]
IC50 (wtEGFR): < 200 nM | IC50 (wtERBB2): < 200 nM

Cc1cc(Nc2ncnn3ccc(C4CN(C(=O)/C=C/CN5CCC5)C4)c23)ccc1Oc1ccn2ncnc2c1 [Example 102, (E)-1-(3-(4-((4-([1,2,4]triazolo[1,5-a]pyridin-7-yloxy)-3-methylphenyl)amino)pyrrolo[2,1-f][1,2,4]triazin-5-yl)azetidin-1-yl)-4-(azetidin-1-yl)but-2-en-1-one]
IC50 (BaF3_EGFRWT cells): 1500 to 5000 nM | IC50 (BaF3_HER2WT cells): 500 to 1500 nM | IC50 (wtERBB2): < 200 nM | IC50 (BaF3_HER2YVMA cells): 1500 to 5000 nM

Cc1cc(Nc2ncnn3ccc(C4CN(C(=O)/C=C/CN)C4)c23)ccc1Oc1ccn2ncnc2c1 [Example 87, (E)-1-(3-(4-((4-([1,2,4]triazolo[1,5-a]pyridin-7-yloxy)-3-methylphenyl)amino)pyrrolo[2,1-f][1,2,4]triazin-5-yl)azetidin-1-yl)-4-aminobut-2-en-1-one]
IC50 (BaF3_EGFRWT cells): 1500 to 5000 nM | IC50 (BaF3_HER2WT cells): 1500 to 5000 nM | IC50 (wtERBB2): < 200 nM | IC50 (BaF3_HER2YVMA cells): 1500 to 5000 nM

COC1CCN(C/C=C/C(=O)N2CCC(c3ccn4ncnc(Nc5ccc(Oc6ccc7c(c6)ncn7C)c(C)c5)c34)CC2)C1 (racemic) [Example 106, (E)-4-(3-methoxypyrrolidin-1-yl)-1-(4-(4-((3-methyl-4-((1-methyl-1H-benzo[d]imidazol-5-yl)oxy)phenyl)amino)pyrrolo[2,1-f][1,2,4]triazin-5-yl)piperidin-1-yl)but-2-en-1-one]
IC50 (BaF3_EGFRWT cells): 1500 to 5000 nM | IC50 (wtEGFR): < 200 nM

C=C(F)C(=O)NC1CN(c2ccn3ncnc(Nc4ccc(Oc5ccn6ncnc6c5)c(C)c4)c23)C1 [Example 18, N-(1-(4-((4-([1,2,4]triazolo[1,5-a]pyridin-7-yloxy)-3-methylphenyl)amino)pyrrolo[2,1-f][1,2,4]triazin-5-yl)azetidin-3-yl)-2-fluoroacrylamide]
IC50 (BaF3_EGFRWT cells): 1500 to 5000 nM | IC50 (BaF3_HER2WT cells): 200 to 500 nM | IC50 (wtERBB2): < 200 nM | IC50 (BaF3_HER2YVMA cells): 500 to 1500 nM

Cc1cc(Nc2ncnn3ccc(C4CC5(C4)CN(C(=O)/C=C/CN(C)C)C5)c23)ccc1Oc1ccn2ncnc2c1 [Example 95, (E)-1-(6-(4-((4-([1,2,4]triazolo[1,5-a]pyridin-7-yloxy)-3-methylphenyl)amino)pyrrolo[2,1-f][1,2,4]triazin-5-yl)-2-azaspiro[3.3]heptan-2-yl)-4-(dimethylamino)but-2-en-1-one]
IC50 (BaF3_EGFRWT cells): 1500 to 5000 nM | IC50 (BaF3_HER2WT cells): 200 to 500 nM | IC50 (wtERBB2): < 200 nM | IC50 (BaF3_HER2YVMA cells): 500 to 1500 nM
